# Experiments:
# B. cenocepacia C8963 = assay: Biofilm formation in 96-well microtiter dish assay (crystal violet staining, A595); type: cell-based, Burkholderia cenocepacia; conditions: for C8963 biofilm growth in the presence of gNO compared with absence of gNO: 200 ppm gNO; for Average A595 (C8 + NO), biofilm formation: experiment 2
# Protocol: (§1) Objective: To determine if exposure to gaseous nitric oxide (gNO) affects the ability of B. cenocepacia C8963 to form a biofilm in a 96-well microtiter dish assay.
# (§2) Methods: B. cenocepacia C8963, a non-mucoid isolate from a cystic fibrosis (CF) patient, and C9343, a mucoid isolate from the same patient, were spotted on Luria Broth agar and grown at 37° C. overnight. Luria broth containing 0.5% (w/v) casamino acids was dispensed into 96-well polypropylene microtiter dishes (100 μl per well) and the wells inoculated with the C8963 or C9343 using a pin-inoculation device. Blank wells were not inoculated. Dishes were incubated in a humidified, closed plastic container for 24 hours at 37° C. (experiment 1) or in the outer chamber of the matrix incubator (a humidified incubator with controlled air flow) for 27 hours at 37° C. (experiment 2). At 24 hours (experiment 1) or 27 hours (experiment 2), one dish was processed for staining of the bacterial biofilms. The remaining dishes were incubated in the inner treatment arms of the matrix incubator at 37° C. in the presence or absence of 200 ppm gNO. One dish for each of the conditions (+gNO or −gNO) was processed for biofilm staining at 32, 36, and 48 hours.
# (§3) To stain biofilm growth, planktonic bacteria were removed from the microtitre dishes by discarding media and cells. Biofilms were washed to remove remaining non-adherent bacteria in two successive tap water washes. Water was shaken from the wells and the dishes inverted and tapped vigorously on a stack of paper towels to remove as much water as possible. Adherent growth was stained by adding 125 μlof a 0.1% (w/v) solution of crystal violet to each well and incubating at room temperature for 15 minutes. Crystal violet was discarded as for the previous washes and excess stain was removed in three successive tap-water washes. Excess water was removed by vigorous tapping as before and the stained dishes allowed to air dry.
# (§4) To quantitate biofilm formation, 200 μl of 95% ethanol was added to each well, incubated at room temperature for 15 minutes, and 125 μl from each well was removed to a clean flat-bottomed polystyrene microtitre dish. The absorbance at 595 nm was read on a Bio-Rad Model 3550 Microplate Reader. The average reading from “Blank” (uninoculated) wells containing only media was subtracted from each “Test” well. The [Test-Blank] averages and standard errors of the mean (SEM) were calculated for each condition and time.
# B. cenocepacia C9343 = assay: as above; type: cell-based, Burkholderia cenocepacia; conditions: 200 ppm gNO; experiment 1
# Protocol: as §1, §2, §3, §4
smiles,measurement,setting,value
"[N]=O [gNO, nitric oxide]",Effect on biofilm formation of C8963,B. cenocepacia C8963; 200 ppm final concentration of gNO,inhibited biofilm formation
same,C8963 biofilm growth in the presence of gNO compared with absence of gNO,"B. cenocepacia C8963; at 32 hours, experiments 1 and 2",greater than in the absence of gNO
same,C8963 biofilm growth in the presence of gNO compared with absence of gNO,"B. cenocepacia C8963; by 36 hours, experiments 1 and 2",significantly lower than in the absence of gNO
same,C8963 biofilm growth in the presence of gNO compared with absence of gNO,"B. cenocepacia C8963; remaining time points up to 48 hours, both experiments",consistently lower
same,"Average A595 (C8 + NO), biofilm formation","B. cenocepacia C8963; time 27 h, after 27 hours in air, before exposure to 200 ppm gNO",0.076
same,"Average A595 (C8 + NO), biofilm formation","B. cenocepacia C8963; time 32 h, 200 ppm gNO from 27 h, 37° C.",0.282
same,"Average A595 (C8 + NO), biofilm formation","B. cenocepacia C8963; time 36 h, 200 ppm gNO from 27 h, 37° C.",0.252
same,"Average A595 (C8 + NO), biofilm formation","B. cenocepacia C8963; time 48 h, 200 ppm gNO from 27 h, 37° C.",0.334
same,Effect on biofilm growth of C8963,B. cenocepacia C8963; low initial concentrations of gNO,enhanced biofilm growth
same,Induction of biofilm formation by mucoid C9343,B. cenocepacia C9343,did not induce biofilm formation
